Measured values reported in US6737383B1, “Herbicidal oxadiazolidines” (priority 1999, dated 2004).

Experiments:
crabgrass = experiment: Test B pre/postemergence crabgrass; type: in vivo, Digitaria sanguinalis
Summary of the method: (§1)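 Herbicidal effect was estimated by eye on a ten-point control scale after plants spent twelve to sixteen days in a greenhouse following soil or foliar treatment. Foliar sprays targeted plants at one to four leaves; all doses were formulated in a non-phytotoxic solvent with surfactant.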

wild oat = experiment: Test B pre/postemergence wild oat; type: in vivo, Avena fatua
Summary of the method: as §1

purple nutsedge = experiment: Test B pre/postemergence purple nutsedge; type: in vivo, Cyperus rotundus
Summary of the method: as §1

blackgrass = experiment: Test B pre/postemergence blackgrass; type: in vivo, Alopecurus myosuroides
Summary of the method: as §1

rape = experiment: Test B pre/postemergence rape; type: in vivo, Brassica napus
Summary of the method: as §1

smallflower flatsedge = experiment: Test B flood test smallflower flatsedge; type: in vivo, Cyperus difformis
Summary of the method: (§2)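 Plants were grown to the 2-leaf stage before treatment with test chemical, then held in a greenhouse for twelve to sixteen days. Injury was visually rated against untreated controls on a 0–10 scale, where 0 is no effect and 10 is complete control.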

bedstraw = experiment: Test B pre/postemergence bedstraw; type: in vivo, Galium aparine
Summary of the method: as §1

bamyardgrass = experiment: Test B flood test barnyardgrass; type: in vivo, Echinochloa crus-galli
Summary of the method: as §2

velvetleaf = experiment: Test B pre/postemergence velvetleaf; type: in vivo, Abutilon theophrasti
Summary of the method: as §1

rice = experiment: Test B flood test rice; type: in vivo, Oryza sativa
Summary of the method: as §2

giant foxtail = experiment: Test B pre/postemergence giant foxtail; type: in vivo, Setaria faberii
Summary of the method: as §1

wheat = experiment: Test B pre/postemergence wheat; type: in vivo, Triticum aestivum
Summary of the method: as §1

corn = experiment: Test B pre/postemergence corn; type: in vivo, Zea mays
Summary of the method: as §1

duck salad = experiment: Test B flood test duck salad; type: in vivo, Heteranthera limosa
Summary of the method: as §2

sugar beet = experiment: Test B pre/postemergence sugar beet; type: in vivo, Beta vulgaris
Summary of the method: as §1

surinam grass = experiment: Test B pre/postemergence surinam grass; type: in vivo, Brachiaria decumbens
Summary of the method: as §1

[1] = Preemergence, Rate 62 g/ha, scale of 0 to 10 where 0 is no effect and 10 is complete control
[2] = Preemergence, Rate 250 g/ha, scale of 0 to 10 where 0 is no effect and 10 is complete control
[3] = Preemergence, Rate 500 g/ha, scale of 0 to 10 where 0 is no effect and 10 is complete control
[4] = Rate 62 g/ha, Postemergence, scale of 0 to 10 where 0 is no effect and 10 is complete control
[5] = Rate 125 g/ha, Postemergence, scale 0 to 10
[6] = Rate 125 g/ha, Preemergence, scale of 0 to 10 where 0 is no effect and 10 is complete control
[7] = Rate 500 g/ha, Postemergence, scale 0 to 10, 0 no effect, 10 complete control
[8] = Rate 62 g/ha, headed Pre-emergence (flood test species), scale 0 to 10 (0 no effect, 10 complete control)
[9] = Rate 125 g/ha, Pre-emergence, flood test species, scale 0 to 10 where 0 is no effect and 10 is complete control
[10] = Rate 250 g/ha, Pre-emergence, flood-test species, scale 0 to 10, 0 is no effect, 10 is complete control
[11] = Rate 500 g/ha, Pre-emergence, flood test species, scale 0 to 10 (0 no effect, 10 complete control)

COc1cc(C)cc(C)c1-n1c(=O)on(C(=O)N(c2ccc(F)cc2)C(C)C)c1=O [Compound 222]
Crabgrass plant response rating (crabgrass; [1]): 0 | Crabgrass plant response rating (crabgrass; [2]): 8 | Plant response rating, Crabgrass (crabgrass; [3]): 9 | Crabgrass plant response rating (crabgrass; [4]): 0 | Crabgrass plant response rating (crabgrass; [5]): 0 | Crabgrass plant response rating (crabgrass; [6]): 6 | Plant response rating (0 to 10; 0 is no effect, 10 is complete control), Crabgrass (crabgrass; Rate 250 g/ha, Postemergence): 0 | Crabgrass plant response rating (crabgrass; [7]): 2 | Wild oats plant response rating (wild oat; [1]): 0 | Wild oats plant response rating (wild oat; [2]): 0 | Plant response rating, Wild oats (wild oat; [3]): 1 | Wild oats plant response rating (wild oat; [4]): 0 | Wild oats plant response rating (wild oat; [5]): 0 | Wild oats plant response rating (wild oat; [6]): 0 | Plant response rating (0 to 10; 0 is no effect, 10 is complete control), Wild oats (wild oat; Rate 250 g/ha, Postemergence): 0 | Wild oats plant response rating (wild oat; [7]): 0 | Nutsedge plant response rating (purple nutsedge; [2]): 0 | Nutsedge plant response rating (purple nutsedge; [4]): 0 | Nutsedge plant response rating (purple nutsedge; [5]): 0 | Nutsedge plant response rating (purple nutsedge; [6]): 0 | Plant response rating (0 to 10; 0 is no effect, 10 is complete control), Nutsedge (purple nutsedge; Rate 250 g/ha, Postemergence): 0 | Blackgrass plant response rating (blackgrass; [1]): 0 | Blackgrass plant response rating (blackgrass; [2]): 0 | Plant response rating, Blackgrass (blackgrass; [3]): 0 | Blackgrass plant response rating (blackgrass; [4]): 0 | Blackgrass plant response rating (blackgrass; [5]): 0 | Blackgrass plant response rating (blackgrass; [6]): 0 | Plant response rating (0 to 10; 0 is no effect, 10 is complete control), Blackgrass (blackgrass; Rate 250 g/ha, Postemergence): 3 | Blackgrass plant response rating (blackgrass; [7]): 4 | Rape plant response rating (rape; [1]): 0 | Rape plant response rating (rape; [2]): 0 | Plant response rating, Rape (rape; [3]): 0 | Rape plant response rating (rape; [4]): 0 | Rape plant response rating (rape; [5]): 0 | Rape plant response rating (rape; [6]): 0 | Plant response rating (0 to 10; 0 is no effect, 10 is complete control), Rape (rape; Rate 250 g/ha, Postemergence): 0 | Rape plant response rating (rape; [7]): 0 | S. Flatsedge plant response rating (smallflower flatsedge; [8]): 0 | S. Flatsedge plant response rating (smallflower flatsedge; [9]): 0 | S. Flatsedge plant response rating (smallflower flatsedge; [10]): 0 | S. Flatsedge plant response rating (smallflower flatsedge; [11]): 0 | Bedstraw plant response rating (bedstraw; [1]): 0 | Bedstraw plant response rating (bedstraw; [2]): 0 | Plant response rating, Bedstraw (bedstraw; [3]): 0 | Bedstraw plant response rating (bedstraw; [4]): 3 | Bedstraw plant response rating (bedstraw; [5]): 3 | Bedstraw plant response rating (bedstraw; [6]): 0 | Plant response rating (0 to 10; 0 is no effect, 10 is complete control), Bedstraw (bedstraw; Rate 250 g/ha, Postemergence): 4 | Bedstraw plant response rating (bedstraw; [7]): 5 | Barnyardgrass plant response rating (bamyardgrass; [8]): 0 | Barnyardgrass plant response rating (bamyardgrass; [9]): 0 | Barnyardgrass plant response rating (bamyardgrass; [10]): 0 | Barnyardgrass plant response rating (bamyardgrass; [11]): 0 | Velvetleaf plant response rating (velvetleaf; [1]): 0 | Velvetleaf plant response rating (velvetleaf; [2]): 0 | Plant response rating, Velvetleaf (velvetleaf; [3]): 3 | Velvetleaf plant response rating (velvetleaf; [4]): 0 | Velvetleaf plant response rating (velvetleaf; [5]): 0 | Velvetleaf plant response rating (velvetleaf; [6]): 0 | Plant response rating (0 to 10; 0 is no effect, 10 is complete control), Velvetleaf (velvetleaf; Rate 250 g/ha, Postemergence): 2 | Velvetleaf plant response rating (velvetleaf; [7]): 3 | Rice plant response rating (rice; [8]): 0 | Rice plant response rating (rice; [9]): 0 | Rice plant response rating (rice; [10]): 0 | Rice plant response rating (rice; [11]): 0 | Giant foxtail plant response rating (giant foxtail; [1]): 0 | Giant foxtail plant response rating (giant foxtail; [2]): 7 | Plant response rating, Giant foxtail (giant foxtail; [3]): 9 | Giant foxtail plant response rating (giant foxtail; [4]): 0 | Giant foxtail plant response rating (giant foxtail; [5]): 0 | Giant foxtail plant response rating (giant foxtail; [6]): 5 | Plant response rating (0 to 10; 0 is no effect, 10 is complete control), Giant foxtail (giant foxtail; Rate 250 g/ha, Postemergence): 0 | Giant foxtail plant response rating (giant foxtail; [7]): 1 | Wheat plant response rating (wheat; [1]): 0 | Wheat plant response rating (wheat; [2]): 0 | Plant response rating, Wheat (wheat; [3]): 0 | Wheat plant response rating (wheat; [4]): 0 | Wheat plant response rating (wheat; [5]): 0 | Wheat plant response rating (wheat; [6]): 0 | Plant response rating (0 to 10; 0 is no effect, 10 is complete control), Wheat (wheat; Rate 250 g/ha, Postemergence): 0 | Wheat plant response rating (wheat; [7]): 0 | Corn plant response rating (corn; [1]): 0 | Corn plant response rating (corn; [2]): 0 | Plant response rating, Corn (corn; [3]): 0 | Corn plant response rating (corn; [4]): 0 | Corn plant response rating (corn; [5]): 0 | Corn plant response rating (corn; [6]): 0 | Plant response rating (0 to 10; 0 is no effect, 10 is complete control), Corn (corn; Rate 250 g/ha, Postemergence): 0 | Corn plant response rating (corn; [7]): 0 | Ducksalad plant response rating (duck salad; [8]): 0 | Ducksalad plant response rating (duck salad; [9]): 0 | Ducksalad plant response rating (duck salad; [10]): 0 | Ducksalad plant response rating (duck salad; [11]): 0 | Sugarbeets plant response rating (sugar beet; [1]): 0 | Sugarbeets plant response rating (sugar beet; [2]): 0 | Plant response rating, Sugarbeets (sugar beet; [3]): 0 | Sugarbeets plant response rating (sugar beet; [4]): 0 | Sugarbeets plant response rating (sugar beet; [5]): 0 | Sugarbeets plant response rating (sugar beet; [6]): 0 | Plant response rating (0 to 10; 0 is no effect, 10 is complete control), Sugarbeets (sugar beet; Rate 250 g/ha, Postemergence): 0 | Sugarbeets plant response rating (sugar beet; [7]): 0 | B. signalgrass plant response rating (surinam grass; [1]): 0 | B. signalgrass plant response rating (surinam grass; Preemergence, Rate 250 g/ha, scale 0 to 10, 0 is no effect, 10 is complete control): 0 | Plant response rating, B. signalgrass (surinam grass; [3]): 0 | B. signalgrass plant response rating (surinam grass; [4]): 0 | B. signalgrass plant response rating (surinam grass; Rate 125 g/ha, Postemergence, scale 0 (no effect) to 10 (complete control)): 0 | B. signalgrass plant response rating (surinam grass; [6]): 0 | Plant response rating (0 to 10; 0 is no effect, 10 is complete control), B. signalgrass (surinam grass; Rate 250 g/ha, Postemergence): 0 | B. signalgrass plant response rating (surinam grass; [7]): 1
